In patent publication US7923585B2, “Menthol derivative and cooling agent composition comprising the same” (Takasago International Corporation, priority 2004, dated 2011):

System: expert panelists (oral evaluation)
Experiment: Sensory evaluation: oral evaluation of an aqueous solution by expert panelists
Assay type: in vivo, human
Details: 20 ppm, 7 expert panelists, all seven gave this evaluation
Protocol: Oral evaluation of an aqueous solution of 2-(2-l-menthyloxyethyl)ethanol obtained in Example 1 in a concentration of 20 ppm was carried out by 7 expert panelists having 5 years or longer experience.

Q: With `CC(C)[C@@H]1CC[C@@H](C)C[C@H]1OCCOCCO` [2-(2-l-menthyloxyethyl)ethanol] as the molecule, how does the “cool and refreshing feeling quality (oral evaluation)” value read?
A: excellent cool and refreshing feeling quality
